Data reported in patent US20120190656A1, “METHODS FOR SELECTING […] TO IMPROVE HDL CHOLESTEROL AND TR[…]” (priority 2010, published 2012).

Columns and labels:
[1] = test system: HDL levels; assay: Population studies (Aging, FHS, collective sample), maximum likelihood models of HDL versus vitamin D intake and genotype; type: in vivo, human; conditions: for increase of HDL: vitamin D deficient subjects, retrospective studies
Method: (§1) Study populations. Factors associated with cardiovascular disease were analyzed using samples from an Aging study population from Utah (“Aging” or “Utah” sample), which included approximately 2500 subjects in 98 Utah pedigrees with 2 or more probands such as, e.g., early stroke, coronary heart disease death, or hypertension. Details regarding subject selection have been previously published. See Williams et al., Recruitment of members of high-risk Utah pedigrees. Control Clin Trials 8: 105S-114S (1987); see also Table 2 below. Additional follow-up assessments were performed, where a validated dietary survey was administered, lipid profiles were determined, DNA was obtained, and standard cardiovascular risk factors were measured. See Hunt et al., Predictors of an increased risk of future hypertension in Utah. A screening analysis. Hypertension 17: 969-976 (1991). In some of the following examples results are described for subjects selected from the foregoing population, wherein samples were excluded if they lacked data relating to complete lipid profiles, genetic polymorphism data, or dietary survey data (n=1060 subjects in 96 families for HDL analysis, and n=1057 subjects in 70 families for triglyceride analysis).
(§2) A replication cohort, moreover, consisted of 5243 caucasian subjects from the NHLBI Family Heart Study (“FamHS” or “FHS” sample), which were not previously administered cholesterol modifying medications. Data for these subjects included lipid profiles and genetic analyses, as described. See Heard-Costa et al., NRXN3 is a novel locus for waist circumference: a genome-wide association study from the CHARGE Consortium. PLoS Genet 5: e1000539 (2009). These population-based families were gathered as part of four studies: the Framingham Heart Study, the Utah Family Tree Study, and ARIC centers in Minneapolis and Forsyth County, N.C. (n=2890 individuals in 504 families; see Table 2 for sample characteristics).
(§3) Both the Aging and FamHS samples were subdivided by season (see Table 2) when measuring both diet and lipids levels. Winter subsamples included data analyzed from November to March and consisted of 362 Aging subjects and 1006 FamHS subjects as shown below in Table 2. Because HDL and triglyceride levels are inversely correlated, vitamin D-triglyceride interactions were also measured from the foregoing samples, as further described below.
(§4) Dietary questionnaire and winter subsamples. Vitamin D intake was measured both in the Aging and FHS samples via a staff-administered semi-quantitative food frequency questionnaire with reproducibility and validity. See, e.g., Willett et al., Reproducibility and validity of a semiquantitative food frequency questionnaire. Am J Epidemiol 122: 51-65 (1985). […] See Jacques et al., Comparison of micronutrient intake measured by a dietary questionnaire and biochemical indicators of micronutrient status. Am J Clin Nutr 57: 182-189 (1993).
(§5) Accordingly, the Aging and FHS studies were subdivided into seasonal and lipid measurement cohorts, both of which occurred at the same clinic visit for the subject.
(§6) Study design and analysis for the aging and FHS samples. jPAP software (see Hasstedt et al., jPAP: Document-driven software for genetic analysis. Genet Epidemiol 29 (2005)), was employed for maximum likelihood analysis, correction of potential covariates, and to estimate heritability attributable to gene-environment interaction factors (interaction) measured as changes in estimated polygenic variance. Natural log transformed HDL was employed as the dependent variable, and all maximum likelihood models included age, sex, and log transformed BMI as baseline covariates. […] Analyses were performed separately for the entire Aging sample and the Aging winter subsample. The results were confirmed using the FHS sample population. […]

[2] = test system: triglyceride levels; assay: Population studies (collective sample), maximum likelihood models of triglycerides versus vitamin D intake and genotype; type: in vivo, human
Method: as §1, §2, §3, §4, §5, §6

[3] = wintertime vitamin D intake raised from 50 IU to 550 IU, heterozygous G/C at rs3135506, model estimate
[4] = wintertime vitamin D intake raised from 50 IU to 550 IU, homozygous C/C at rs3135506, model estimate

C=C1/C(=C\C=C2/CCC[C@]3(C)[C@@H]([C@H](C)CCCC(C)(C)O)CC[C@@H]23)C[C@@H](O)C[C@@H]1O [vitamin D, 1,25-dihydroxyvitamin D3]
association of vitamin D alone with HDL levels ([1]; FHS study population, entire sample): not associated with an increase in patient HDL levels | increase of HDL ([1]; heterozygous for a vitamin D sensitive allele): 5% | increase of HDL ([1]; homozygous for a vitamin D sensitive allele): 10% | increase of HDL cholesterol [1, 3]: approximately 10 mg/dL | increase of HDL cholesterol [1, 4]: approximately 20 mg/dL | decrease of HDL cholesterol ([1]; wintertime vitamin D intake raised from 50 IU to 550 IU, homozygous G/G at rs3135506, model estimate): approximately 0.5 mg/dL | effect of vitamin D on triglyceride levels ([2]; collective sample, entire, patients with rs3135506 polymorphism, p=0.33): did not have a significant effect | decrease of triglyceride levels ([2]; vitamin D deficient subjects, heterozygous for a vitamin D sensitive allele, retrospective studies): 5% | decrease of triglyceride levels ([2]; vitamin D deficient subjects, homozygous for a vitamin D sensitive allele, retrospective studies): 10% | decrease of triglyceride levels [2, 3]: 50 mg/dL | decrease of triglyceride levels [2, 4]: 125 mg/dL | increase of triglycerides ([2]; wintertime vitamin D intake raised from 50 IU to 550 IU, homozygous G/G at rs3135506 (wild-type), model estimate): 2 mg/dL
